How the values were obtained:
[1] = biological target: IRAK4 enzyme (Homo sapiens (Human), UniProt Q9NWZ3); test: biochemical; type: biochemical; settings: IRAK4 enzyme, TR-FRET, 500 μM ATP
[2] = test system: TNFα; test: cells; type: cell-based, human; settings: Homo sapiens, Monocyte, LPS-stimulated human monocytes, TNFα content; read-out: EC50 TNF
Experimental: IRAK4 Monocyte TNFα Cell Based Assay Procedure:
The cell suspension was then plated at a density of 5,000 cells/well onto black 384 well Greiner clear bottom plates. Plates were pre-spotted with test compounds and serially diluted in DMSO where 200 nL/well were delivered using the Echo 550 acoustic liquid dispenser (Labcyte®) for a final DMSO concentration of 0.5%. Plated cells were treated with compound for 1 hour at 37° C. Cells were then stimulated with 50 pg/ml of LPS (Sigma) excluding outside columns of plate used for unstimulated cell control wells. Cells were incubated for an additional 4 hours at 37° C. Cells were then spun out of the media and 5 μl of sample were taken and analyzed for total TNFα content using the TR-FRET Human TNFα detection system (CisBio). This system utilizes two labeled antibodies (cryptate and XL665) that bind to two different epitopes of the TNFα molecule and produce FRET signal proportional to the concentration of TNFα in the sample. Detection antibodies are mixed 50:50 and 5 μL were dispensed into each well. Plates were covered with clear seals and incubated at room temp overnight. […] Percent of control was calculated as follows: % Control=100×(RatioSample−Ratio0% stimulation)/(Ratio100% Stimulation−Ratio0% Stimulation) where unstimulated cells (0% stimulation) were the negative control and stimulated cells (100% stimulation) were used as the positive control.

Chain of IRAK4 enzyme (Q9NWZ3 whole entry): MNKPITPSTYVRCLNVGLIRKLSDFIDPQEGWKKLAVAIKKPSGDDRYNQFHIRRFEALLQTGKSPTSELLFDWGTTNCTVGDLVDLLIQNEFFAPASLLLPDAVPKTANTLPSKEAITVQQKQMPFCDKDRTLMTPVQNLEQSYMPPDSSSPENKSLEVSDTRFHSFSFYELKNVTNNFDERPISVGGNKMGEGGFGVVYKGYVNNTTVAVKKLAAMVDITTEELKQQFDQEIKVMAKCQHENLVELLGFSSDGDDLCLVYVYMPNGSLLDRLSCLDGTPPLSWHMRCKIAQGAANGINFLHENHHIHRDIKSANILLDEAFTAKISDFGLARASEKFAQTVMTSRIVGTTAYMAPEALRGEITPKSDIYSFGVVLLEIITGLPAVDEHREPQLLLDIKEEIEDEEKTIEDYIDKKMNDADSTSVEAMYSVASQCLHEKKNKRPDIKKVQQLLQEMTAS

| Compound | IC50 [1] [nM] | EC50 [2] [nM] |
| --- | --- | --- |
| CC(C)Nc1cc(-c2ccc3cc(C#N)cnn23)ncc1C(=O)NCc1ccc(=O)[nH]c1 [Example 157, 6-(3-cyanopyrrolo[1,2-b]pyridazin-7-yl)-4-(isopro-pylamino)-N-((6-oxo-1,6-dihydropyridin-3-yl)methyl) nicotinamide] | 23 | 501 |
| COC1(C)CN(C(=O)C23CCC(Nc4cc(-c5ccc6cc(C#N)cnn56)ncc4C(=O)NC[C@@H](F)C(C)(C)O)(CC2)CC3)C1 [Example 158, (R)-6-(3-cyanopyrrolo[1,2-b]pyridazin 7-yl)-N-(2-fluoro-3-hydroxy-3-methylbutyl)-4-((4-(3-methoxy-3-methylazetidine-1-carbonyl)bicyclo[2.2.2]octan-1-yl)amino)nicotinamide] | 2 | 99 |
| CC1(O)CN(C(=O)C23CCC(Nc4cc(-c5ccc6cc(C#N)cnn56)ncc4C(=O)NC[C@@H](F)C(C)(C)O)(CC2)CC3)C1 [Example 159, (R)-6-(3-cyanopyrrolo[1,2-b]pyridazin-7-yl)-N-(2-fluoro-3-hydroxy-3-methylbutyl)-4-((4-(3-hydroxy-3-methylazetidine-1-carbonyl)bicyclo[2.2.2]octan-1-yl)amino)nicotinamide] | 1 | 184 |
| CC(C)(O)[C@H](F)CNC(=O)c1cnc(-c2ccc3cc(C#N)cnn23)cc1N[C@H]1C[C@H](OC(=O)NC2CC2)C1 [Example 160, (1R,3r)-3-((2-(3-cyano-pyrrolo[1,2-b]pyridazin-7-yl)-5-(((R)-2-fluoro-3-hydroxy-3-methylbutyl)carbamoyl)pyridin-4-yl)amino)cyclobutyl cyclopropylcarbamate] | 465 | > 10000 |
| CN(C)C(=O)O[C@H]1C[C@H](Nc2cc(-c3ccc4cc(C#N)cnn34)ncc2C(=O)NC[C@@H](F)C(C)(C)O)C1 [Example 161, (1R,3r)-3-((2-(3-cyano-pyrrolo[1,2-b]pyridazin-7-yl)-5-(((R)-2-fluoro-3-hydroxy-3-methylbutyl)carbamoyl)pyridin-4-yl)amino)cyclobutyl dimethylcarbamate] | 1000 | > 10000 |
| CNC(=O)O[C@H]1C[C@H](Nc2cc(-c3ccc4cc(C#N)cnn34)ncc2C(=O)NC[C@@H](F)C(C)(C)O)C1 [Example 162, (1R,3r)-3-((2-(3-cyano-pyrrolo[1,2-b]pyridazin-7-yl)-5-(((R)-2-fluoro-3-hydroxy-3-methylbutyl)carbamoyl)pyridin-4-yl)amino)cyclobutyl methylcarbamate] | 376 | > 10000 |
| CC(C)(O)[C@H](F)CNC(=O)c1cnc(-c2ccc3cc(C#N)cnn23)cc1N[C@H]1CC[C@H](OC(=O)NC2CC2)CC1 [Example 163, (1R,4r)-4-((2-(3-cyano-pyrrolo[1,2-b]pyridazin-7-yl)-5-(((R)-2-fluoro-3-hydroxy-3-methylbutyl)carbamoyl)pyridin-4-yl)amino)cyclohexyl cyclopropylcarbamate] | 90 | > 10000 |
| CN(C)C(=O)O[C@H]1CC[C@H](Nc2cc(-c3ccc4cc(C#N)cnn34)ncc2C(=O)NC[C@@H](F)C(C)(C)O)CC1 [Example 164, (1R,4r)-4-((2-(3-cyano-pyrrolo[1,2-b]pyridazin-7-yl)-5-(((R)-2-fluoro-3-hydroxy-3-methylbutyl)carbamoyl)pyridin-4-yl)amino)cyclohexyl dimethylcarbamate] | 132 | 9940 |
| CNC(=O)O[C@H]1CC[C@H](Nc2cc(-c3ccc4cc(C#N)cnn34)ncc2C(=O)NC[C@@H](F)C(C)(C)O)CC1 [Example 165, (1R,4r)-4-((2-(3-cyano-pyrrolo[1,2-b]pyridazin-7-yl)-5-(((R)-2-fluoro-3-hydroxy-3-methylbutyl)carbamoyl)pyridin-4-yl)amino)cyclohexyl methylcarbamate] | 59 | > 10000 |

Source: patent US10336762B2 (priority 2017, dated 2019)
